# Target: human GPR40 receptor (Homo sapiens, UniProt O14842)
# Assay: IP1 accumulation measurements using the IPOne assay system
# Format: cell-based
# Details: 1321N1 cells stably expressing human GPR40; stimulation 1 h at 37° C.
# Method: IP1 accumulation measurements using the IPOne assay system—1321N1 cells stably expressing human GPR40 receptor (Euroscreen, Belgium) are seeded 24 h before the assay in white 384-well plates in culture medium containing 10% FCS, 1% Na-Pyruvate and 400 μg/mL G418. IP1 is assayed according to the manufacturer's description (Cisbio Bioassays, France). In brief, the assay is started by substitution of the culture medium by stimulation buffer (Hepes 10 mM, CaCl2 1 mM, MgCl2 0.5 mM, KCl 4.2 mM, NaCl 146 mM, glucose 5.5 mM and LiCl 50 mM, pH 7.4). Cells are stimulated for 1 h at 37° C., 5% CO2 by addition of the compounds that are diluted in stimulation buffer containing LiCl. Assays are stopped by adding HTRF-conjugates (IP1-d2 and Anti-IP1 cryptate Tb) and lysis buffer, provided by the manufacturer. After an incubation time of 1 h at room temperature plates are measured using an EnVision™, Perkin Elmer. The obtained fluorescence ratios at 665/615 […] are then used to calculate the pEC50 values using Assay Explorer 3.3 Software (Accelrys, Inc.) by interpolation using an IP1 reference curve and subsequent sigmoidal curve fitting allowing for a variable hill slope.
# Chain of human GPR40 receptor (O14842 whole entry): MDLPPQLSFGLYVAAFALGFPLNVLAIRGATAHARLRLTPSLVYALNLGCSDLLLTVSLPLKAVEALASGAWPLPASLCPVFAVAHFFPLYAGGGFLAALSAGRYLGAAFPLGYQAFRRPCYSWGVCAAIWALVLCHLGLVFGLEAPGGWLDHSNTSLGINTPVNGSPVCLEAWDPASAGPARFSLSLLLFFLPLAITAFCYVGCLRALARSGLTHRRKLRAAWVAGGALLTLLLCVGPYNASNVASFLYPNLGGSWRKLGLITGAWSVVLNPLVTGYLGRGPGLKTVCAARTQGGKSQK
row,SMILES,EC50 [nM]
1,"N#Cc1ccc(Oc2ccc(F)c3c2CC[C@H]3Oc2ccc3c(c2)OC[C@H]3CC(=O)O)c(F)c1 [Example 22, {(S)-6-[(R)-4-(4-Cyano-2-fluoro-phenoxy)-7-fluoro-indan-1-yloxy]-2,3-dihydro-benzofuran-3-yl}-acetic acid]",3
2,"COc1cc(C#N)ccc1Oc1ccc(F)c2c1CC[C@H]2Oc1ccc2c(c1)OC[C@H]2CC(=O)O [Example 52, {(S)-6-[(R)-4-(4-Cyano-2-methoxy-phenoxy)-7-fluoro-indan-1-yloxy]-2,3-dihydro-benzofuran-3-yl}-acetic acid]",6
3,"Cc1ccccc1Oc1ccc(F)c2c1CC[C@H]2Oc1ccc2c(c1)OC[C@H]2CC(=O)O [Example 4, {(S)-6-[(R)-7-Fluoro-4-(2-methyl-phenoxy)-indan-1-yloxy]-2,3-dihydro-benzofuran-3-yl}-acetic acid]",6
4,"N#Cc1cc(OC(F)(F)F)ccc1Oc1ccc(F)c2c1CC[C@H]2Oc1ccc2c(c1)OC[C@H]2CC(=O)O [Example 26, {(S)-6-[(R)-4-(2-Cyano-4-trifluoromethoxy-phenoxy)-7-fluoro-indan-1-yloxy]-2,3-dihydro-benzofuran-3-yl}-acetic acid]",30
5,"O=C(O)C[C@@H]1COc2cc(O[C@@H]3CCc4c(Oc5ccc(OC(F)F)cn5)ccc(F)c43)ccc21 [Example 25, {(S)-6-[(R)-4-(5-Difluoromethoxy-pyrid-2-yloxy)-7-fluoro-indan-1-yloxy]-2,3-dihydro-benzofuran-3-yl}-acetic acid]",13
6,"Cn1ncc2ccc(Oc3ccc(F)c4c3CC[C@H]4Oc3ccc4c(c3)OC[C@H]4CC(=O)O)cc21 [Example 46, {(S)-6-[(R)-7-Fluoro-4-(1-methyl-1H-indazol-6-yloxy)-indan-1-yloxy]-2,3-dihydro-benzofuran-3-yl}-acetic acid]",3
7,"O=C(O)C[C@@H]1COc2cc(O[C@@H]3CCc4c(Oc5cnccn5)ccc(F)c43)ccc21 [Example 10, {(S)-6-[(R)-7-Fluoro-4-pyrazin-2-yloxy-indan-1-yloxy]-2,3-dihydro-benzofuran-3-yl}-acetic acid]",35
8,"N#Cc1cc(F)c(Oc2ccc(F)c3c2CC[C@H]3Oc2ccc3c(c2)OC[C@H]3CC(=O)O)c(F)c1 [Example 51, {(S)-6-[(R)-4-(4-cyano-2,6-difluoro-phenoxy)-7-fluoro-indan-1-yloxy]-2,3-dihydro-benzofuran-3-yl}-acetic acid]",18
9,"Cc1c(Oc2ccc(F)c3c2CC[C@H]3Oc2ccc3c(c2)OC[C@H]3CC(=O)O)ccc2c1cnn2C [Example 53, {(S)-6-[(R)-7-Fluoro-4-(1,4-dimethyl-1H-indazol-5-yloxy)-indan-1-yloxy]-2,3-dihydro-benzofuran-3-yl}-acetic acid]",69
10,"O=C(O)C[C@@H]1COc2cc(O[C@@H]3CCc4c(Oc5cccc6cccnc56)ccc(F)c43)ccc21 [Example 39, {(S)-6-[(R)-7-Fluoro-4-(Quinolin-8-yloxy)-indan-1-yloxy]-2,3-dihydro-benzofuran-3-yl}-acetic acid]",21
11,"Cc1nccc(Oc2ccc(F)c3c2CC[C@H]3Oc2ccc3c(c2)OC[C@H]3CC(=O)O)n1 [Example 9, {(S)-6-[(R)-7-Fluoro-4-(2-methyl-pyrimid-4-yloxy)-indan-1-yloxy]-2,3-dihydro-benzofuran-3-yl}-acetic acid]",155
12,"O=C(O)C[C@@H]1COc2cc(O[C@@H]3CCc4c(Oc5ccc6ncccc6c5)ccc(F)c43)ccc21 [Example 20, {(S)-6-[(R)-7-Fluoro-4-Quinolin-6-yloxy-indan-1-yloxy]-2,3-dihydro-benzofuran-3-yl}-acetic acid]",6
13,"O=C(O)C[C@@H]1COc2cc(O[C@@H]3CCc4c(Oc5ncc(F)cn5)ccc(F)c43)ccc21 [Example 33, {(S)-6-[(R)-7-Fluoro-4-(5-fluoro-pyrimid-2-yloxy)-indan-1-yloxy]-2,3-dihydro-benzofuran-3-yl}-acetic acid]",31
